Columns and labels:
[1] = target: T1, recombinant human CL receptor/RAMP1 (Homo sapiens, UniProt O60894+Q16602); experiment: Recombinant receptor binding assay (125I-hCGRP); details: membranes of HEK 293 cells expressing human CL receptor/RAMP1, 10 pM 125I-hCGRP, 3 h room temperature
T1 construct: expressed in transfected cells
Method: (§1) RECOMBINANT RECEPTOR: Human CL receptor (Genbank accession number L76380) was subcloned into the expression vector pIREShyg2 (BD Biosciences Clontech) as a 5′NheI and 3′ PmeI fragment. Human RAMP1 (Genbank accession number AJ001014) was subcloned into the expression vector pIRESpuro2 (BD Biosciences Clontech) as a 5′NheI and 3′NotI fragment. HEK 293 cells (human embryonic kidney cells; ATCC #CRL-1573) were cultured in DMEM with 4.5 g/L glucose, 1 mM sodium pyruvate and 2 mM glutamine supplemented with 10% fetal bovine serum (FBS), 100 units/mL penicillin and 100 μg/mL streptomycin, and maintained at 37° C. and 95% humidity. Cells were subcultured by treatment with 0.25% trypsin with 0.1% EDTA in HBSS. Stable cell line generation was accomplished by co-transfecting 10 μg of DNA with 30 μg Lipofectamine 2000 (Invitrogen) in 75 cm^2 flasks. CL receptor and RAMP1 expression constructs were co-transfected in equal amounts. […]
[formula] Where Y is observed CPM bound, Ymax is total bound counts, Ymin is non specific bound counts, (Ymax−Ymin) is specific bound counts, % Imax is the maximum percent inhibition, % I min is the minimum percent inhibition, radiolabel is the probe, and the Kd is the apparent dissociation constant for the radioligand for the receptor as determined by hot saturation experiments.

[2] = target: T1, recombinant human CL receptor/RAMP1; experiment: Recombinant receptor functional assay (cAMP, HTRF); type: cell-based; details: HEK 293 cells, 1.2 nM human α-CGRP, cAMP determination
Method: as §1
RECOMBINANT RECEPTOR FUNCTIONAL ASSAY: Cells were resuspended in DMEM/F12 (Hyclone) supplemented with 1 g/L BSA and 300 μM isobutyl-methylxanthine. […] Raw data were transformed into concentration of cAMP using a standard curve then dose response curves were plotted and inflection point (IP) values were determined.

T1 sequence (Q16602 23-461): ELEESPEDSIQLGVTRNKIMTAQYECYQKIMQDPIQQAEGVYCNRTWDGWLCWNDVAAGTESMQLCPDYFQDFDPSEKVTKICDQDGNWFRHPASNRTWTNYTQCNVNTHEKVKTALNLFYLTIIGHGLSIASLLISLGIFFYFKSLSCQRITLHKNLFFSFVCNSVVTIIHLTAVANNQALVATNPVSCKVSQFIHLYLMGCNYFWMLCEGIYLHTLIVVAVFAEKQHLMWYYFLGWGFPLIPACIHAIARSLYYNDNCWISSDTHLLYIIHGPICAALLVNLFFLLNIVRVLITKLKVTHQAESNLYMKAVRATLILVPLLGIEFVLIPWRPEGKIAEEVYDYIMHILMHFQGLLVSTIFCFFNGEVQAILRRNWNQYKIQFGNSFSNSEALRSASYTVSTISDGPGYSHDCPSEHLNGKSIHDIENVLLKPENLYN
T1 sequence (O60894 27-148): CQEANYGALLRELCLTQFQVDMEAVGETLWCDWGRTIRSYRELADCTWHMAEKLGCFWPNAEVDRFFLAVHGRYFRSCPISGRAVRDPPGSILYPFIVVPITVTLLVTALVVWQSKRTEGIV

C[C@@H]1[C@H](c2ccccc2)C[C@H](NCC(F)(F)c2cnc3c(c2)C[C@@]2(C3)C(=O)Nc3ncccc32)C(=O)N1CC(F)(F)F [Example 2, (6S)-3-(1,1-Difluoro-2-(((3S,5S,6R)-6-methyl-2-oxo-5-phenyl-1-(2,2,2-trifluoroethyl)piperidin-3-yl)amino)ethyl)-5,7-dihydrospiro[cyclopenta[b]pyridine-6,3′-pyrrolo[2,3-b]pyridin]-2′(1′H)-one]
Ki [1]: 409 nM

CC1C(c2cc(F)cc(F)c2F)CC(CC=Cc2cnc3c(c2)C[C@@]2(C3)C(=O)Nc3ncccc32)C(=O)N1CC(F)(F)F (stereo partly drawn) [Example 1, (3′S)-3-(3-(6-Methyl-2-oxo-1-(2,2,2-trifluoroethyl)-5-(2,3,5-trifluorophenyl)piperidin-3-yl)prop-1-en-1-yl)-5,7-dihydrospiro[cyclopenta[b]pyridine-6,3′-pyrrolo[2,3-b]pyridin]-2′(1′H)-one]
IC50 [2]: 7.2 nM

C[C@@H]1[C@H](c2ccccc2)C[C@H](NS(=O)(=O)c2cnc3c(c2)C[C@@]2(C3)C(=O)Nc3ncccc32)C(=O)N1CC(F)(F)F [Example 3, (6S)—N-[(3S,5S,6R)-6-Methyl-2-oxo-5-phenyl-1-(2,2,2-trifluoroethyl)piperidin-3-yl]-2′-oxo-1′,2′,5,7-tetrahydrospiro[cyclopenta[b]pyridine-6,3′-pyrrolo[2,3-b]pyridine]-3-sulfonamide]
IC50 [2]: 3720 nM

From patent US9227972B2, “Aliphatic spirolactam CGRP receptor antagonists” (Merck Sharp & Dohme Corp., priority 2012, dated 2016)
